According to patent publication US9102678B2, “Compounds and methods for inhibiting mitotic progression” (Millennium Pharmaceuticals, Inc., priority 2004, dated 2015):

target: T1, recombinant murine Aurora A enzyme (Mus musculus, UniProt P97477); test: Aurora A DELFIA Kinase Assay; assay type: biochemical; details: mouse Aurora A, 250 μM ATP; threshold less than or equal to 100 nM; read-out: IC50
T1 construct: hexahistidine (His6) (N); made in house; host or cells: insect cells, baculovirus (Bac-to-Bac, Invitrogen)
T1 sequence (P97477 whole entry): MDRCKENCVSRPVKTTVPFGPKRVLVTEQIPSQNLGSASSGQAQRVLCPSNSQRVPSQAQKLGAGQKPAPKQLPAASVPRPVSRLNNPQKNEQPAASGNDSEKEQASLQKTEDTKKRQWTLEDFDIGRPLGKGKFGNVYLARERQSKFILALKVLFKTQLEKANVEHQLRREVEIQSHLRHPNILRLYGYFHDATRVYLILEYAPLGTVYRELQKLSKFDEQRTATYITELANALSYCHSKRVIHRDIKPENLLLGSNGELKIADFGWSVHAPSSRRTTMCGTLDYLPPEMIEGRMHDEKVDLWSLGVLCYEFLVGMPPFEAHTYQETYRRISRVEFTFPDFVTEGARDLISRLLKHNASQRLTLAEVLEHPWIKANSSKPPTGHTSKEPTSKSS

Row | IC50 [nM] | Compound
1 | ≤ 100 | COc1cccc(F)c1C1=NCc2cnc(Nc3ccc(C(=O)N4CCNC(C)C4)cc3)nc2-c2ccc(Cl)cc21 (centres unmarked) [Compound I-232]
2 | ≤ 100 | O=C(NC1CCNCC1)c1ccc(Nc2ncc3c(n2)-c2ccc(Cl)cc2C(c2ccccc2F)=NC3)cc1 [Compound I-16, 4-[9-Chloro-7-(2-fluoro-phenyl)-5H-benzo[c]pyrimido[4,5-e]azepin-2-ylamino]-N-piperidin-4-yl-benzamide]
3 | ≤ 100 | CCOC(=O)[C@@H](CCN)NC(=O)c1ccc(Nc2ncc3c(n2)-c2ccc(Cl)cc2C(c2c(F)cccc2F)=NC3)cc1 [Compound I-309, ethyl (2R)-4-amino-2-[(4-{[9-chloro-7-(2,6-difluorophenyl)-5H-pyrimido[5,4-d][2]benzazepin-2-yl]amino}benzoyl)amino]butanoate]
4 | ≤ 100 | Cc1ccccc1C1=NCc2cnc(Nc3ccc(C(=O)NCCN4CCOCC4)cc3)nc2-c2ccc(Cl)cc21 [Compound I-31, 4-(9-Chloro-7-o-tolyl-5H-benzo[c]pyrimido[4,5-e]azepin-2-ylamino)-N-(2-morpholin-4-yl-ethyl)-benzamide]
5 | ≤ 100 | COc1ccc(Nc2ncc3c(n2)-c2ccc(Cl)cc2C(c2ccccc2Cl)=NC3)cc1OC [Compound I-73, [9-Chloro-7-(2-chloro-phenyl)-5H-benzo[c]pyrimido[4,5-e]azepin-2-yl]-(3,4-dimethoxy-phenyl)-amine]
6 | ≤ 100 | O=C(O)c1ccc(Nc2ncc3c(n2)-c2ccc(Cl)cc2C(c2ccccc2Cl)=NC3)cc1O [Compound I-86, 4-[9-Chloro-7-(2-chloro-phenyl)-5H-benzo[c]pyrimido[4,5-e]azepin-2-ylamino]-2-hydroxy-benzoic acid]
7 | ≤ 100 | CC1CN(C(=O)c2cccc(Nc3ncc4c(n3)-c3ccc(Cl)cc3C(c3c(F)cccc3F)=NC4)c2)CC(C)N1 (centres unmarked) [Compound I-222, 9-chloro-7-(2,6-difluorophenyl)-N-{3-[(3,5-dimethylpiperazin-1-yl)carbonyl]phenyl}-5H-pyrimido[5,4-d][2]benzazepin-2-amine]
8 | ≤ 100 | O=C(O)c1ccc(Nc2ncc3c(n2)-c2ccc(Cl)cc2C(c2ccccc2C(F)(F)F)=NC3)cc1 [Compound I-277, 4-({9-chloro-7-[2-(trifluoromethyl)phenyl]-5H-pyrimido[5,4-d][2]benzazepin-2-yl}amino)benzoic acid]
9 | ≤ 100 | CNC1CCN(C(=O)c2ccc(Nc3ncc4c(n3)-c3ccc(Cl)cc3C(c3ccccn3)=NC4)cc2)C1 (centres unmarked) [Compound I-315, 9-chloro-N-(4-{[3-(methylamino)pyrrolidin-1-yl]carbonyl}phenyl)-7-pyridin-2-yl-5H-pyrimido[5,4-d][2]benzazepin-2-amine]
10 | ≤ 100 | NC1CCN(C(=O)c2ccc(Nc3ncc4c(n3)-c3ccc(Cl)cc3C(c3ccccc3C(F)(F)F)=NC4)cc2)CC1 [Compound I-287, N-{4[(4-aminopiperidin-1-yl)carbonyl]phenyl}-9-chloro-7-[2-(trifluoromethyl)phenyl]-5H-pyrimido[5,4-d][2]benzazepin-2-amine]
11 | ≤ 100 | CNC1CCN(C(=O)c2ccc(Nc3ncc4c(n3)-c3ccc(Cl)cc3C(c3c(F)cccc3F)=NC4)cc2)CC1 [Compound I-220, 9-chloro-7-(2,6-difluorophenyl)-N-(4-{[4-(methylamino)piperidin-1-yl]carbonyl}phenyl)-5H-pyrimido[5,4-d][2]benzazepin-2-amine]
12 | ≤ 100 | CN1CCN(C(=O)Cc2cccc(Nc3ncc4c(n3)-c3ccc(Cl)cc3C(c3ccccc3F)=NC4)c2)CC1 [Compound I-15, 2-{3-[9-Chloro-7-(2-fluoro-phenyl)-5H-benzo[c]pyrimido[4,5-e]azepin-2-ylamino]-phenyl}-1-(4-methyl-piperazin-1-yl)-ethanone]
13 | ≤ 100 | CNC1CCN(C(=O)c2ccc(Nc3ncc4c(n3)-c3ccc(Cl)cc3C(c3ccccn3)=NC4)cc2)CC1 [Compound I-316, 9-chloro-N-(4-{[4-(methylamino)piperidin-1-yl]carbonyl}phenyl)-7-pyridin-2-yl-5H-pyrimido[5,4-d][2]benzazepin-2-amine]
14 | ≤ 100 | CN(C)C1CCN(C(=O)c2ccc(Nc3ncc4c(n3)-c3ccc(Cl)cc3C(c3c(F)cccc3F)=NC4)cc2)C1 (centres unmarked) [Compound I-176, 9-Chloro-7-(2,6-difluorophenyl)-N-(4-{[3-(dimethylamino)pyrrolidin-1-yl]carbonyl}phenyl)-5H-pyrimido[5,4-d][2]benzazepin-2-amine]
15 | ≤ 100 | CNC1CCN(C(=O)c2csc(Nc3ncc4c(n3)-c3ccc(Cl)cc3C(c3c(F)cccc3F)=NC4)n2)C1 (centres unmarked) [Compound I-367, 9-chloro-7-(2,6-difluorophenyl)-N-(4-{[3-(methylamino)pyrrolidin-1-yl]carbonyl}-1,3-thiazol-2-yl)-5H-pyrimido[5,4-d][2]benzazepin-2-amine]
16 | ≤ 100 | O=S(=O)(O)c1ccc(Nc2ncc3c(n2)-c2ccc(Cl)cc2C(c2ccccc2F)=NC3)cc1 [Compound I-67, 4-[9-Chloro-7-(2-fluoro-phenyl)-5H-benzo[c]pyrimido[4,5-e]azepin-2-ylamino]-benzenesulfonic acid]

Row | IC50 [nM] | Compound
17 | ≤ 100 | O=C(O)c1ccc(Nc2ncc3c(n2)-c2ccc(C(=O)O)cc2C(c2ccccc2F)=NC3)cc1 [Compound I-249, 2-[(4-carboxyphenyl)amino]-7-(2-fluorophenyl)-5H-pyrimido[5,4-d][2]benzazepine-9-carboxylic acid]
18 | ≤ 100 | CN(C)C1CCN(C(=N)NC(=O)c2ccc(Nc3ncc4c(n3)-c3ccc(Cl)cc3C(c3c(F)cccc3F)=NC4)cc2)CC1 [Compound I-223, 4-{[9-chloro-7-(2,6-difluorophenyl)-5H-pyrimido[5,4-d][2]benzazepin-2-yl]amino}-N-[[4-(dimethylamino)piperidin-1-yl](imino)methyl]benzamide]
19 | ≤ 100 | CN1CCN(CCCNC(=O)c2ccc(Nc3ncc4c(n3)-c3ccc(Cl)cc3C(c3ccccc3F)=NC4)cc2)CC1 [Compound I-19, 4-[9-Chloro-7-(2-fluoro-phenyl)-5H-benzo[c]pyrimido[4,5-e]azepin-2-ylamino]-N-[3-(4-methyl-piperazin-1-yl)-propyl]-benzamide]
20 | ≤ 100 | CNC1CCN(C(=O)c2ccc(Nc3ncc4c(n3)-c3ccc(Cl)cc3C(c3c(F)cccc3Cl)=NC4)cc2)CC1 [Compound I-325, 9-chloro-7-(2-chloro-6-fluorophenyl)-N-(4-{[4-(methylamino)piperidin-1-yl]carbonyl}phenyl)-5H-pyrimido[5,4-d][2]benzazepin-2-amine]
21 | ≤ 100 | Nc1ccc(Nc2ncc3c(n2)-c2ccc(Cl)cc2C(c2c(F)cccc2F)=NC3)cc1 [Compound I-217, N-[9-chloro-7-(2,6-difluorophenyl)-5H-pyrimido[5,4-d][2]benzazepin-2-yl]benzene-1,4-diamine]
22 | ≤ 100 | O=C(O)c1ccc(Nc2ncc3c(n2)-c2ccc(Cl)cc2C(c2c(F)cccc2F)=NC3)cc1 [Compound I-135, 4-[9-Chloro-7-(2,6-difluoro-phenyl)-5H-benzo[c]pyrimido[4,5-e]azepin-2-ylamino]-benzoic acid]
23 | ≤ 100 | COc1cccc(F)c1C1=NCc2cnc(Nc3ccc(C(=O)N4CCC(N)CC4)cc3)nc2-c2ccc(Cl)cc21 [Compound I-241, N-{4[(4-aminopiperidin-1-yl)carbonyl]phenyl}-9-chloro-7-(2-fluoro-6-methoxyphenyl)-5H-pyrimido[5,4-d][2]benzazepin-2-amine]
24 | ≤ 100 | CN1CCC(N(C)C(=O)c2ccc(Nc3ncc4c(n3)-c3ccc(Cl)cc3C(c3ccccc3F)=NC4)cc2)C1 (centres unmarked) [Compound I-99, 4-[9-Chloro-7-(2-fluoro-phenyl)-5H-benzo[c]pyrimido[4,5-e]azepin-2-ylamino]-N-methyl-N-(1-methyl-pyrrolidin-3-yl)-benzamide]
25 | ≤ 100 | CN(C)C1CCCN(C(=O)c2ccc(Nc3ncc4c(n3)-c3ccc(Cl)cc3C(c3c(F)cccc3F)=NC4)cc2)C1 (centres unmarked) [Compound I-293, 9-chloro-7-(2,6-difluorophenyl)-N-(4-{[3-(dimethylamino)piperidin-1-yl]carbonyl}phenyl)-5H-pyrimido[5,4-d][2]benzazepin-2-amine]
26 | ≤ 100 | O=C(O)c1coc(Nc2ncc3c(n2)-c2ccc(Cl)cc2C(c2c(F)cccc2F)=NC3)n1 [Compound I-368, 2-{[9-chloro-7-(2,6-difluorophenyl)-5H-pyrimido[5,4-d][2]benzazepin-2-yl]amino}-1,3-oxazole-4-carboxylic acid]
27 | ≤ 100 | CN(C)CCCNC(=O)c1ccc(Nc2ncc3c(n2)-c2ccc(Cl)cc2C(c2ccccc2F)=NC3)cc1 [Compound I-6, 4-[9-Chloro-7-(2-fluoro-phenyl)-5H-benzo[c]pyrimido[4,5-e]azepin-2-ylamino]-N-(3-dimethylamino-propyl)-benzamide]
28 | ≤ 100 | CN(C)CCN(C)C(=O)c1ccc(Nc2ncc3c(n2)-c2ccc(Cl)cc2C(c2ccccc2F)=NC3)cc1 [Compound I-5, 4-[9-Chloro-7-(2-fluoro-phenyl)-5H-benzo[c]pyrimido[4,5-e]azepin-2-ylamino]-N-(2-dimethylamino-ethyl)-N-methyl-benzamide]
29 | ≤ 100 | COc1cccc(F)c1C1=NCc2cnc(Nc3ccc(C(=O)N4CCC(N)C4)cc3)nc2-c2ccc(Cl)cc21 (centres unmarked) [Compound I-240]
30 | ≤ 100 | CNCCN(C)C(=O)c1ccc(Nc2ncc3c(n2)-c2ccc(Cl)cc2C(c2c(F)cccc2OC)=NC3)cc1 [Compound I-254, 4-{[9-chloro-7-(2-fluoro-6-methoxyphenyl)-5H-pyrimido[5,4-d][2]benzazepin-2-yl]amino}-N-methyl-N-[2-(methylamino)ethyl]benzamide]
31 | ≤ 100 | CN1CCN(C(=O)c2ccc(Nc3ncc4c(n3)-c3ccc(Cl)cc3C(c3c(F)cccc3F)=NC4)cc2)CC1 [Compound I-184, {4-[9-Chloro-7-(2,6-difluoro-phenyl)-5H-benzo[c]pyrimido[4,5-e]azepin-2-ylamino]-phenyl}-(4-methyl-piperazin-1-yl)-methanone]
32 | ≤ 100 | NC(=O)C1CN(C(=O)c2ccc(Nc3ncc4c(n3)-c3ccc(Cl)cc3C(c3c(F)cccc3F)=NC4)cc2)CCN1 (centres unmarked) [Compound I-317, 4-(4-{[9-chloro-7-(2,6-difluorophenyl)-5H-pyrimido[5,4-d][2]benzazepin-2-yl]amino}benzoyl)piperazine-2-carboxamide]
